Patent US8614179B2, “Antibacterial combination therapy for the treatment of gram positive bacterial infections” (E-Therapeutics PLC, priority 2008, dated 2013)
Read-outs that look alike come from different tables or passages of the source.

Legend:
Assay type in all cases: cell-based
[1] = test system: Enterococcus faecium (VRE); assay: microbe, parasite or virus in culture; details: read-out: MIC
Procedure: (§1) In example experiments miconazole nitrate, econazole nitrate and clotrimazole were dissolved in DMSO. Colistin, D-cycloserine, fosfomycin and polymixin B were dissolved in water. Nisin was suspended at 10 mg/mL in 0.02 M HCl, and the supernatant fraction following centrifugation at 10,000 g for 10 mins was used in the following experiments.
(§2) Other solvents that may be used include caster oil, pyridine, and 0.9% saline. For IV administration agents may be solubilised in polyethoxylated caster oil, or cyclodextrins such as sulfobutylether7-βcyclodextrin or hydroxypropyl-β-cyclodextrin and lactic acid. Minimum inhibitory concentrations (MICs) of a range of clinical and control bacterial organisms were measured according to BSAC (British Society for Antimicrobial Chemotherapy) guidelines (Andrews 2001), for single agents. The method of determining MICs of imidazole with colistin, D-cycloserine, fosfomycin, polymixin B, or nisin is described briefly as follows. MICs were measured by agar dilution. Kill curves were performed in accordance with the methods of Garrison and Nuemiller, 2007. Briefly kill profiles were generated by logarithmically plotting mean CFU/mL data over time. Total logarithmic reductions in bacterial counts were determined by subtracting 24 h CFU/mL values from starting inocula.
(§3) Stock solutions were prepared at concentrations of 1000 mg/L and 100 mg/L. To determine the MIC of miconazole, the appropriate amount of each stock solution were added to separate Petri dishes give a range of final concentrations (after the addition of 20 mL molten agar): from 0.12 to 32 mg/L. To determine the MICs of miconazole with the specific agent active on a bacterial cell surface, these concentrations of miconazole were used in addition to a fixed sub-inhibitory amount of the agent active on a bacterial cell surface. […] Volumes (20 mL) of cooled molten IST agar (oxoid) was added to each Petri dish and mixed by swirling. After drying, the plates were stored at 4° C. and protected from light. Plates were used on the day of preparation.
(§4) The test organisms were grown overnight in 5 mL IST broth. Using a dilution in 0.9% saline of 1:100, the appropriate agar plates were inoculated using a multipoint inoculator.
(§5) Agar plates and microtitre plates were incubated at 37° C. in air for 18-20 hours.
(§6) The MIC is the minimum amount of an antibiotic at which there is no visible growth of bacteria. Tiny single colonies or faint hazes were not counted as growth. Synergy was reported if the inhibitory effect of the drugs in combination were greater than the sum of the inhibitory effects of each drug singly. The concentration of miconazole, with or without the cell membrane or cell wall active agent, capable of inhibiting the growth of 50% and 90% of the strains tested is reported as the MIC50 and MIC90 respectively. The range of MICs for each group of bacterial strains is also reported.

MRSA = assay: microbe, parasite or virus in culture; details: Staphylococcus aureus
Procedure: as §1, §2, §3, §4, §5, §6

VISA = assay: microbe, parasite or virus in culture; details: Staphylococcus aureus, read-out: MIC
Procedure: as §1, §2, §3, §4, §5, §6

[2] = test system: E1 E. gall ATCC 12359 VanC; assay: organism not typed; details: Table 4; strain E1 E. gall ATCC 12359 VanC; agents singly or miconazole MIC with 2.5 mg/L nisin
Procedure: as §1
as §2, with “Briefly kill profiles were generated by logarithmically plotting mean CFU/mL data over time.” left out, “inocula. […]” for “inocula.”
The MIC is the minimum amount of an antibiotic at which there is no visible growth of bacteria. Tiny single colonies or faint hazes were not counted as growth. […]

Clostridium difficile = assay: MIC against clinical isolates of Clostridium difficile; details: Table 5, miconazole alone or with 0.5 mg/L nisin
Procedure: as §1, §2, §3, §4, §5, §6

SMILES: Clc1ccc(COC(Cn2ccnc2)c2ccc(Cl)cc2Cl)c(Cl)c1 (centres unmarked) [Miconazole, 1-[2-(2,4-Dichlorophenyl)-2-[(2,4-dichlorophenyl)methoxy]ethyl]-1H-imidazole]
- MIC ([1]; ATCC 7171 / VRE, Table 4, strain E. faecium ATCC 7171, agents singly or miconazole MIC with 2.5 mg/L nisin): 0.5 µg/mL
- MIC ([1]; VRE, Table 4, strain E15 VanAATCC4147 E. faecium, agents singly or miconazole MIC with 2.5 mg/L nisin): 2 µg/mL
- MIC ([1]; VRE, Table 4, strain E. faecium VanR B145344C LFE, agents singly or miconazole MIC with 2.5 mg/L nisin): 4 µg/mL
- MIC (MRSA; Table 4, strain LF10, agents singly or miconazole MIC with 2.5 mg/L nisin): 2 µg/mL
- MIC (MRSA; Table 4, strain LF11, agents singly or miconazole MIC with 2.5 mg/L nisin): 2 µg/mL
- MIC (MRSA; Table 4, strain LF12, agents singly or miconazole MIC with 2.5 mg/L nisin): 2 µg/mL
- MIC (MRSA; Table 4, strain LF13, agents singly or miconazole MIC with 2.5 mg/L nisin): 2 µg/mL
- MIC (MRSA; Table 4, strain LF14, agents singly or miconazole MIC with 2.5 mg/L nisin): 2 µg/mL
- MIC (MRSA; Table 4, strain LF15, agents singly or miconazole MIC with 2.5 mg/L nisin): 2 µg/mL
- MIC (MRSA; Table 4, strain LF16, agents singly or miconazole MIC with 2.5 mg/L nisin): 2 µg/mL
- MIC (MRSA; Table 4, strain LF17, agents singly or miconazole MIC with 2.5 mg/L nisin): 2 µg/mL
- MIC (MRSA; Table 4, strain LF18, agents singly or miconazole MIC with 2.5 mg/L nisin): 1 µg/mL
- MIC (MRSA; Table 4, strain LF19, agents singly or miconazole MIC with 2.5 mg/L nisin): 2 µg/mL
- MIC (MRSA; Table 4, strain PF 15a 009521M ST22 EMRSA, agents singly or miconazole MIC with 2.5 mg/L nisin): 1 µg/mL
- MIC (MRSA; Table 4, strain PF 16a 00923R EMRSA 16, agents singly or miconazole MIC with 2.5 mg/L nisin): 2 µg/mL
- MIC (MRSA; Table 4, strain PF 99b 983237K BERIAN CLONE, agents singly or miconazole MIC with 2.5 mg/L nisin): 2 µg/mL
- MIC (MRSA; Table 4, strain PF 116a 981695K, agents singly or miconazole MIC with 2.5 mg/L nisin): 2 µg/mL
- MIC (MRSA; Table 4, strain PF 153a 026225E, agents singly or miconazole MIC with 2.5 mg/L nisin): 0.5 µg/mL
- MIC (MRSA; Table 4, strain S113 MRSA, agents singly or miconazole MIC with 2.5 mg/L nisin): 2 µg/mL
- MIC (VISA; Table 4, strain Mu3ex Japan, agents singly or miconazole MIC with 2.5 mg/L nisin): 2 µg/mL
- MIC (VISA; Table 4, strain Mu50ex Japan, agents singly or miconazole MIC with 2.5 mg/L nisin): 1 µg/mL
- MIC (VISA; Table 4, strain USA/VISA 5827, agents singly or miconazole MIC with 2.5 mg/L nisin): 2 µg/mL
- MIC (VISA; Table 4, strain USA/VISA 5836, agents singly or miconazole MIC with 2.5 mg/L nisin): 4 µg/mL
- MIC (VISA; Table 4, strain VISA 3900 UK, agents singly or miconazole MIC with 2.5 mg/L nisin): 2 µg/mL
- MIC [2]: 1 µg/mL
- MIC (Clostridium difficile; Clostridioides difficile, C. difficile clinical isolate 184, read-out: MIC): > 16 µg/mL
- MIC (Clostridium difficile; C. difficile clinical isolate 5): >16 µg/mL
- MIC (Clostridium difficile; C. difficile clinical isolate 23): >16 µg/mL
- MIC (Clostridium difficile; C. difficile clinical isolate 28): >16 µg/mL
- MIC (Clostridium difficile; C. difficile clinical isolate 30): >16 µg/mL
- MIC (Clostridium difficile; C. difficile clinical isolate 31): >16 µg/mL
- MIC (Clostridium difficile; C. difficile clinical isolate 41): >16 µg/mL
- MIC (Clostridium difficile; C. difficile clinical isolate 47): >16 µg/mL
- MIC (Clostridium difficile; C. difficile clinical isolate 57): >16 µg/mL
- MIC (Clostridium difficile; C. difficile clinical isolate 58): >16 µg/mL
- MIC (Clostridium difficile; C. difficile clinical isolate 77): >16 µg/mL
- MIC (Clostridium difficile; C. difficile clinical isolate 83): >16 µg/mL
- MIC (Clostridium difficile; C. difficile clinical isolate 84): >16 µg/mL
- MIC (Clostridium difficile; C. difficile clinical isolate 87): >16 µg/mL
- MIC (Clostridium difficile; C. difficile clinical isolate 96): >16 µg/mL
- MIC (Clostridium difficile; C. difficile clinical isolate 97): >16 µg/mL
- MIC (Clostridium difficile; C. difficile clinical isolate 98A): >16 µg/mL
- MIC (Clostridium difficile; C. difficile clinical isolate 99A): >16 µg/mL
- MIC (Clostridium difficile; C. difficile clinical isolate 102): >16 µg/mL
- MIC (Clostridium difficile; C. difficile clinical isolate 120): >16 µg/mL
- MIC (Clostridium difficile; C. difficile clinical isolate 126): >16 µg/mL
- MIC (Clostridium difficile; C. difficile clinical isolate 130): >16 µg/mL
- MIC (Clostridium difficile; C. difficile clinical isolate 169): >16 µg/mL
- MIC (Clostridium difficile; C. difficile clinical isolate 185): >16 µg/mL
- MIC (Clostridium difficile; C. difficile clinical isolate 186): >16 µg/mL
